Test results from patent US9561231B2 (AbbVie Inc., priority 2012, dated 2017).
Where two headings read alike, the source gives them in different places.

Legend:
[1] = molecular target: T1, second (BD2: amino acids E352-E168) bromodomain of BRD4 (Homo sapiens, UniProt O60885); experiment: TR-FRET bromodomain binding assay, BRD4 BD2; conditions: Ki calculated from IC50, probe Kd and probe concentration, read-out: TR-FRET Binding Ki: BRD4 (BDII_E352-M457)
T1 construct: protocol
Procedure, shortened: (§1)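 His-tagged BRD4 bromodomain competed against an Alexa647-labeled BET-inhibitor probe by TR-FRET in 20 mM sodium phosphate pH 6.0, 50 mM NaCl, 1 mM EDTA, 0.01% Triton X-100, 1 mM DTT.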

[2] = system: breast cancer cell line MX-1; experiment: MX-1 cell line proliferation assay (3-day); type: cell-based; conditions: Homo sapiens, MX1, MX-1 cells, Cell Titer Glo, read-out: Cellular proliferation: EC50
Procedure, shortened: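 EC50 derived by sigmoidal fitting of Cell Titer Glo signal relative to DMSO controls. Compound, 3 μM down to 0.0001 μM final in 3-fold steps, was added to adhered MX-1 cells (5000/well, RPMI + 10% FBS) for a 3-day incubation at 37° C.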

[3] = molecular target: T2, first (BD1: amino acids K57-E168) bromodomain of BRD4 (Homo sapiens, UniProt O60885); experiment: TR-FRET bromodomain binding assay, BRD4 BD1; conditions: Ki calculated from IC50, probe Kd and probe concentration, read-out: TR-FRET Binding Ki: BRD4 (BDI_K57-E168)
T2 construct: His-tagged first (BD1: amino acids K57-E168)
Procedure, shortened: as §1

[4] = TR-FRET assay protocol (A-G, compound concentration range)
[5] = TR-FRET assay protocol (D, E or G) per compound

SMILES | Ki [1, 4] [nM] | EC50 ([2]; 72 h incubation) [nM] | Ki [3, 4] [nM] | Ki [1, 5] [nM] | EC50 ([2]; 72 hours with compound) [nM] | Ki [3, 5] [nM]
CN1CCN(Cc2cccc(-c3cc(=O)n(C)nc3-c3ccccc3Oc3ccccc3)c2)CC1 [Example 60, 2-methyl-5-{3-[(4-methylpiperazin-1-yl)methyl]phenyl}-6-(2-phenoxyphenyl)pyridazin-3(2H)-one] | 413 | > 3000 | 170 | – | – | –
CCOc1cc(=O)n(C)cc1-c1cc(NS(=O)(=O)CC)ccc1OCC1CC1 [Example 381, N-[4-(cyclopropylmethoxy)-3-(4-ethoxy-1-methyl-6-oxo-1,6-dihydropyridin-3-yl)phenyl]ethanesulfonamide] | – | – | – | 56.1 | 115 | 33.4
CCS(=O)(=O)Nc1ccc(Oc2ccc(F)cc2F)c(-c2cn(C)c(=O)cc2OCCC(C)(C)O)c1 [Example 372, N-{4-(2,4-difluorophenoxy)-3-[4-(3-hydroxy-3-methylbutoxy)-1-methyl-6-oxo-1,6-dihydropyridin-3-yl]phenyl}ethanesulfonamide] | 14.3 | 205 | 33.5 | – | – | –
Cn1nc(-c2ccccc2Oc2ccccc2)c(-c2ccnc(F)c2)cc1=O [Example 54, 5-(2-fluoropyridin-4-yl)-2-methyl-6-(2-phenoxyphenyl)pyridazin-3(2H)-one] | 356 | 4240 | 4120 | – | – | –
CCS(=O)(=O)Nc1ccc(Oc2ccc(F)cc2F)c(-c2cn(C)c(=O)cc2OCC(C)(C)O)c1 [Example 376, N-{4-(2,4-difluorophenoxy)-3-[4-(2-hydroxy-2-methylpropoxy)-1-methyl-6-oxo-1,6-dihydropyridin-3-yl]phenyl}ethanesulfonamide] | – | – | – | 17.1 | 708 | 123
CCOc1cc(=O)n(C)cc1-c1cc(NS(=O)(=O)CC)ccc1Oc1ccc(Cl)cc1F [Example 403, N-[4-(4-chloro-2-fluorophenoxy)-3-(4-ethoxy-1-methyl-6-oxo-1,6-dihydropyridin-3-yl)phenyl]ethanesulfonamide] | – | – | – | 1.38 | 23.9 | 14.7
CCOc1cc(=O)n(C)cc1-c1cc(C(C)(C)S(=O)(=O)CC)ccc1Oc1ccc(F)cc1F [Example 380, 5-{2-(2,4-difluorophenoxy)-5-[2-(ethylsulfonyl)propan-2-yl]phenyl}-4-ethoxy-1-methylpyridin-2(1H)-one] | – | – | – | 3.88 | 38.4 | 14.3
CC(=O)c1cc(=O)n(C)nc1-c1ccccc1Oc1ccccc1 [Example 221, 5-acetyl-2-methyl-6-(2-phenoxyphenyl)pyridazin-3(2H)-one] | 517 | 7200 | 976 | – | – | –
Cn1cnc(S(=O)(=O)Nc2ccc(Oc3ccccc3)c(-c3ccc(=O)n(C)c3)c2)c1 [Example 227, 1-methyl-N-[3-(1-methyl-6-oxo-1,6-dihydropyridin-3-yl)-4-phenoxyphenyl]-1H-imidazole-4-sulfonamide] | 420 | > 3000 | 157 | – | – | –
CCOC(=O)C1CCN(c2cc(=O)n(C)nc2-c2ccccc2Oc2ccccc2)C1 (stereo not drawn) [Example 49, ethyl 1-[1-methyl-6-oxo-3-(2-phenoxyphenyl)-1,6-dihydropyridazin-4-yl]pyrrolidine-3-carboxylate] | 748 | 7110 | 6680 | – | – | –
Cn1ccc(-c2cc(=O)n(C)nc2-c2ccccc2Oc2ccccc2)cc1=O [Example 56, 2-methyl-5-(1-methyl-2-oxo-1,2-dihydropyridin-4-yl)-6-(2-phenoxyphenyl)pyridazin-3(2H)-one] | 341 | 10400 | 2900 | – | – | –
Cn1cc(-c2cc(NS(C)(=O)=O)ccc2OCC2CCOCC2)ccc1=O [Example 250, N-[3-(1-methyl-6-oxo-1,6-dihydropyridin-3-yl)-4-(tetrahydro-2H-pyran-4-ylmethoxy)phenyl]methanesulfonamide] | 12500 | > 3000 | 143 | – | – | –
Cn1cc(-c2cc(NS(C)(=O)=O)ccc2Oc2cc(F)cc(F)c2)ccc1=O [Example 242, N-[4-(3,5-difluorophenoxy)-3-(1-methyl-6-oxo-1,6-dihydropyridin-3-yl)phenyl]methanesulfonamide] | 338 | 556 | 45 | – | – | –
Cn1nc(-c2cc(N)ccc2Oc2ccccc2)ccc1=O [Example 10, 6-(5-amino-2-phenoxyphenyl)-2-methylpyridazin-3(2H)-one] | 1500 | 3700 | 2440 | – | – | –
Cn1nc(-c2ccccc2Oc2ccccc2)c(-c2cccc(CC#N)c2)cc1=O [Example 193, {3-[1-methyl-6-oxo-3-(2-phenoxyphenyl)-1,6-dihydropyridazin-4-yl]phenyl}acetonitrile] | 1010 | 1290 | 167 | – | – | –

The next lines start with the values.

Ki [1, 4] [nM] | EC50 ([2]; 72 h incubation) [nM] | Ki [3, 4] [nM] | Ki [1, 5] [nM] | EC50 ([2]; 72 hours with compound) [nM] | Ki [3, 5] [nM] | SMILES
2.45 | 107 | 4.58 | – | – | – | CN1CCN(Cc2ccc(-c3cc(=O)n(C)cc3-c3cc(NS(C)(=O)=O)ccc3Oc3ccc(F)cc3F)cc2)CC1 [Example 273, N-[4-(2,4-difluorophenoxy)-3-(1-methyl-4-{4-[(4-methylpiperazin-1-yl)methyl]phenyl}-6-oxo-1,6-dihydropyridin-3-yl)phenyl]methanesulfonamide]
39.5 | 135 | 52.7 | – | – | – | CCOc1cc(=O)n(C)cc1-c1cc(CS(C)(=O)=O)ccc1Oc1ccc(F)cc1F [Example 370, 5-{2-(2,4-difluorophenoxy)-5-[(methylsulfonyl)methyl]phenyl}-4-ethoxy-1-methylpyridin-2(1H)-one]
5.07 | 271 | 23.1 | – | – | – | CCOc1cc(=O)n(C)cc1-c1cc(NS(=O)(=O)c2ccccc2)ccc1Oc1ccc(F)cc1F [Example 344, N-[4-(2,4-difluorophenoxy)-3-(4-ethoxy-1-methyl-6-oxo-1,6-dihydropyridin-3-yl)phenyl]benzenesulfonamide]
259 | 384 | 213 | – | – | – | Cn1nc(-c2ccccc2Oc2ccccc2)c(-c2ccc(N3CCOCC3)cc2)cc1=O [Example 149, 2-methyl-5-[4-(morpholin-4-yl)phenyl]-6-(2-phenoxyphenyl)pyridazin-3(2H)-one]
225 | > 3000 | 98 | – | – | – | CCN(CC)Cc1ccc(-c2cc(=O)n(C)nc2-c2ccccc2Oc2ccccc2)cc1 [Example 69, 5-{4-[(diethylamino)methyl]phenyl}-2-methyl-6-(2-phenoxyphenyl)pyridazin-3(2H)-one]
307 | 1130 | 462 | – | – | – | CC(C)C(O)c1ccc(-c2cc(=O)n(C)nc2-c2ccccc2Oc2ccccc2)cc1 (stereo not drawn) [Example 73, 5-[4-(1-hydroxy-2-methylpropyl)phenyl]-2-methyl-6-(2-phenoxyphenyl)pyridazin-3(2H)-one]
1.71 | 22.7 | 2.98 | – | – | – | C/C=C/c1cc(=O)n(C)cc1-c1cc(NS(=O)(=O)CC)ccc1Oc1ccc(F)cc1F [Example 329, N-[4-(2,4-difluorophenoxy)-3-{1-methyl-6-oxo-4-[(1E)-prop-1-en-1-yl]-1,6-dihydropyridin-3-yl]phenyl}ethanesulfonamide]
162 | 1430 | 324 | – | – | – | CNc1ccc(-c2cc(=O)n(C)nc2-c2ccccc2Oc2ccccc2)cc1 [Example 191, 2-methyl-5-[4-(methylamino)phenyl]-6-(2-phenoxyphenyl)pyridazin-3(2H)-one]
39.4 | 194 | 17.4 | – | – | – | CCS(=O)(=O)Nc1ccc(Oc2ccc(F)cc2F)c(-c2cc(Cl)c(=O)n(C)c2)c1 [Example 283, N-[3-(5-chloro-1-methyl-6-oxo-1,6-dihydropyridin-3-yl)-4-(2,4-difluorophenoxy)phenyl]ethanesulfonamide]
0.39 | 55.6 | 2.51 | – | – | – | CCS(=O)(=O)Nc1ccc(Oc2ccc(F)cc2F)c(-c2cn(C)c(=O)cc2OCc2ccc(CN3CCOCC3)cc2)c1 [Example 315, N-[4-(2,4-difluorophenoxy)-3-(1-methyl-4-{[4-(morpholin-4-ylmethyl)benzyl]oxy}-6-oxo-1,6-dihydropyridin-3-yl)phenyl]ethanesulfonamide]
77.9 | 256 | 26.8 | – | – | – | CCS(=O)(=O)Nc1ccc(Oc2ccc(F)cc2F)c(-c2cc(F)c(=O)n(C)c2)c1 [Example 352, N-[4-(2,4-difluorophenoxy)-3-(5-fluoro-1-methyl-6-oxo-1,6-dihydropyridin-3-yl)phenyl]ethanesulfonamide]
78.9 | 720 | 296 | – | – | – | COc1cc(=O)n(C)nc1-c1cc(NS(=O)(=O)Cc2ccccc2)ccc1Oc1ccccc1 [Example 27, N-[3-(4-methoxy-1-methyl-6-oxo-1,6-dihydropyridazin-3-yl)-4-phenoxyphenyl]-1-phenylmethanesulfonamide]
